System: KRAS PDC multicell spheroid viability
Experiment: Anticancer human tumor 825966-067-R-J1-PDC patient-derived colon carcinoma cell line growth inhibition [KRAS2]
Settings: for IC50: curve of first compound; for viability, T/C: stronger effect = lower value
Procedure, shortened: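 Combination screen of spheroid viability in tumor-cell co-cultures with endothelial (HUVEC) and mesenchymal stem cell stroma. Each agent was tested in half-log dilutions, topping at clinical Cmax or at 10 microM without a known Cmax.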

[1] = second compound 0.1 µM, first compound 0.0316 µM
[2] = second compound 0.1 µM, first compound 0.1 µM
[3] = second compound 0.1 µM, first compound 0.316 µM
[4] = second compound 0.1 µM, first compound 1 µM
[5] = second compound 0.1 µM, first compound 3.16 µM
[6] = second compound 0.316 µM, first compound 0.0316 µM
[7] = second compound 0.316 µM, first compound 0.1 µM
[8] = second compound 0.316 µM, first compound 0.316 µM
[9] = second compound 0.316 µM, first compound 1 µM
[10] = second compound 0.316 µM, first compound 3.16 µM
[11] = second compound 1 µM, first compound 0.0316 µM
[12] = second compound 1 µM, first compound 0.1 µM
[13] = second compound 1 µM, first compound 0.316 µM
[14] = second compound 1 µM, first compound 1 µM
[15] = second compound 1 µM, first compound 3.16 µM
[16] = second compound 3.16 µM, first compound 0.0316 µM
[17] = second compound 3.16 µM, first compound 0.1 µM
[18] = second compound 3.16 µM, first compound 0.316 µM
[19] = second compound 3.16 µM, first compound 1 µM
[20] = second compound 3.16 µM, first compound 3.16 µM
[21] = second compound 0.1 µM, first compound 0.01 µM
[22] = second compound 0.316 µM, first compound 0.01 µM
[23] = second compound 1 µM, first compound 0.01 µM
[24] = second compound 3.16 µM, first compound 0.01 µM
[25] = second compound 10 µM, first compound 0.01 µM
[26] = second compound 10 µM, first compound 0.0316 µM
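Note: spheroids exposed to compounds for 7 days.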
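Throughout, for viability, T/C: 100% = DMSO vehicle control viability.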

CC1OCC2(CCN(c3cnc(Sc4ccnc(N)c4Cl)c(N)n3)CC2)C1N (stereo not given) + C=CC(=O)N1CCN(c2nc(OCC3CCCN3C)nc3c2CCN(c2cccc4cccc(C)c24)C3)CC1CC#N
IC50 (second compound 0.0316 µM): 8770 nM | IC50 (second compound 0.1 µM): 8780 nM | IC50 (second compound 0.316 µM): 6860 nM | IC50 (second compound 1 µM): 7180 nM | IC50 (second compound 3.16 µM): 5790 nM | viability, T/C (second compound 0.0316 µM, first compound 0.0316 µM): 105% | viability, T/C (second compound 0.0316 µM, first compound 0.1 µM): 97% | viability, T/C (second compound 0.0316 µM, first compound 0.316 µM): 92.5% | viability, T/C (second compound 0.0316 µM, first compound 1 µM): 82.3% | viability, T/C (second compound 0.0316 µM, first compound 3.16 µM): 106% | viability, T/C (second compound 0.0316 µM, first compound 10 µM): 44% | viability, T/C [1]: 84.6% | viability, T/C [2]: 75% | viability, T/C [3]: 114% | viability, T/C [4]: 83.5% | viability, T/C [5]: 89.9% | viability, T/C (second compound 0.1 µM, first compound 10 µM): 44.9% | viability, T/C [6]: 94.5% | viability, T/C [7]: 83.5% | viability, T/C [8]: 90.4% | viability, T/C [9]: 107% | viability, T/C [10]: 115% | viability, T/C (second compound 0.316 µM, first compound 10 µM): 26.4% | viability, T/C [11]: 87.2% | viability, T/C [12]: 105% | viability, T/C [13]: 97.7% | viability, T/C [14]: 97.3% | viability, T/C [15]: 121% | viability, T/C (second compound 1 µM, first compound 10 µM): 29.1% | viability, T/C [16]: 81.4% | viability, T/C [17]: 116% | viability, T/C [18]: 102% | viability, T/C [19]: 110% | viability, T/C [20]: 99% | viability, T/C (second compound 3.16 µM, first compound 10 µM): 5.73%

CC(=O)Nc1cccc(-n2c(=O)n(C3CC3)c(=O)c3c(Nc4ccc(I)cc4F)n(C)c(=O)c(C)c32)c1 + CC1OCC2(CCN(c3cnc(Sc4ccnc(N)c4Cl)c(N)n3)CC2)C1N
IC50 (second compound 0.1 µM): > 31.6 nM | IC50 (second compound 0.316 µM): > 31.6 nM | IC50 (second compound 1 µM): 4.52 nM | IC50 (second compound 3.16 µM): 0.827 nM | IC50 (second compound 10 µM): 0.12 nM | viability, T/C (second compound 0.1 µM, first compound 0.0001 µM): 93.2% | viability, T/C (second compound 0.1 µM, first compound 0.000316 µM): 98.9% | viability, T/C (second compound 0.1 µM, first compound 0.001 µM): 125% | viability, T/C (second compound 0.1 µM, first compound 0.00316 µM): 103% | viability, T/C [21]: 93.5% | viability, T/C [1]: 56.5% | viability, T/C (second compound 0.316 µM, first compound 0.0001 µM): 96.3% | viability, T/C (second compound 0.316 µM, first compound 0.000316 µM): 91.8% | viability, T/C (second compound 0.316 µM, first compound 0.001 µM): 110% | viability, T/C (second compound 0.316 µM, first compound 0.00316 µM): 116% | viability, T/C [22]: 64.8% | viability, T/C [6]: 49.6% | viability, T/C (second compound 1 µM, first compound 0.0001 µM): 80.8% | viability, T/C (second compound 1 µM, first compound 0.000316 µM): 128% | viability, T/C (second compound 1 µM, first compound 0.001 µM): 105% | viability, T/C (second compound 1 µM, first compound 0.00316 µM): 61.2% | viability, T/C [23]: 27.2% | viability, T/C [11]: 21.5% | viability, T/C (second compound 3.16 µM, first compound 0.0001 µM): 97.1% | viability, T/C (second compound 3.16 µM, first compound 0.000316 µM): 108% | viability, T/C (second compound 3.16 µM, first compound 0.001 µM): 39.6% | viability, T/C (second compound 3.16 µM, first compound 0.00316 µM): 28.2% | viability, T/C [24]: 18.4% | viability, T/C [16]: 15.8% | viability, T/C (second compound 10 µM, first compound 0.0001 µM): 57.4% | viability, T/C (second compound 10 µM, first compound 0.000316 µM): 9.62% | viability, T/C (second compound 10 µM, first compound 0.001 µM): 7.27% | viability, T/C (second compound 10 µM, first compound 0.00316 µM): 6.92% | viability, T/C [25]: 5.11% | viability, T/C [26]: 14.4%

CC(=O)OC12COC1CC(O)C1(C)C(=O)C(O)C3=C(C)C(OC(=O)C(O)C(NC(=O)OC(C)(C)C)c4ccccc4)CC(O)(C(OC(=O)c4ccccc4)C21)C3(C)C (stereo not given) + CC1OCC2(CCN(c3cnc(Sc4ccnc(N)c4Cl)c(N)n3)CC2)C1N
IC50 (second compound 0.1 µM): < 10 nM | IC50 (second compound 0.316 µM): < 10 nM | IC50 (second compound 1 µM): < 10 nM | IC50 (second compound 3.16 µM): < 10 nM | IC50 (second compound 10 µM): < 10 nM | viability, T/C [21]: 17.9% | viability, T/C [1]: 15.2% | viability, T/C [2]: 18.4% | viability, T/C [3]: 17.1% | viability, T/C [4]: 17.3% | viability, T/C [5]: 22% | viability, T/C [22]: 13.1% | viability, T/C [6]: 12% | viability, T/C [7]: 13.3% | viability, T/C [8]: 12% | viability, T/C [9]: 15.8% | viability, T/C [10]: 15.9% | viability, T/C [23]: 17.5% | viability, T/C [11]: 18% | viability, T/C [12]: 18.9% | viability, T/C [13]: 12.3% | viability, T/C [14]: 13% | viability, T/C [15]: 21.6% | viability, T/C [24]: 10.3% | viability, T/C [16]: 10.2% | viability, T/C [17]: 10.7% | viability, T/C [18]: 6.99% | viability, T/C [19]: 7.72% | viability, T/C [20]: 11.7% | viability, T/C [25]: 7.08% | viability, T/C [26]: 7.25% | viability, T/C (second compound 10 µM, first compound 0.1 µM): 10% | viability, T/C (second compound 10 µM, first compound 0.316 µM): 6.28% | viability, T/C (second compound 10 µM, first compound 1 µM): 4.82% | viability, T/C (second compound 10 µM, first compound 3.16 µM): 10.1%

From PubChem BioAssay AID1963865 (Molecular Pharmacology Branch, DTP, NCI, 2024)
